In US20230406850A1, “CRYSTALLINE FORM OF HETEROCYCLIC COMPOUND, PREPARATION METHOD THEREFOR AND APPLICATION THEREOF” (WUHAN LL SCIENCE AND TECHNOLOGY DEVELOPMENT CO., LTD., priority 2020, published 2023):
≈ marks a conversion by molar mass, not a printed value. Like-named read-outs stand apart in the source and are kept apart here.

Columns and labels:
[1] = Solid form change on dehydration, drying or ambient humidity (XRPD); type: physicochemical
Source text: Combined with DSC and TGA pattern, it can be seen that the product is hydrate with about 0.34 water molecules.

[2] = Water activity experiment (slurry in acetone/water); type: physicochemical; conditions: three days
Protocol: Water activity experiment was carried out. Crystalline forms I and V ([…]) were slurried in a mixed solvent in acetone/water with different water contents at room temperature and 60° C. for three days, and after three days, solid sample was filtered to test XRPD, and the experimental results are as shown in Table 4.

[3] = Solubility in biological media SGF, FaSSIF and FeSSIF; type: physicochemical; conditions: for solubility at 0.5 h / solubility at 2 h / Solubility: 37° C.
Protocol: Compared with other crystalline forms, crystalline forms I, III and V show good solid properties, so their solubility was tested respectively.
10 mg of the sample was weighed, and then 2.0 mL of biological media buffer (i.e. the target concentration is 5 mg/mL) was added to form a suspension. The mixture was put in a constant temperature water bath shaker (37° C., 100 rpm), and sampled 500 μL at 0.5, 2 and 24 hours respectively. After filtration, the pH value and HPLC concentration of filtrate were tested respectively, and the solid sample obtained by filtration was tested by XRPD.

[4] = Pharmacokinetics, crystalline form I versus crystalline form V; type: in vivo, Beagle dog; conditions: 10 mg/kg po, fasting, male dogs, 0.5% CMC-Na suspension, plasma
Protocol: Beagle dog (general grade, Beijing Masi Biotechnology Co., Ltd.) was given compound A by single oral gavage to study the pharmacokinetics of the compound in plasma. The test drug (100 mg/kg dosage, 5 mL/kg administration volume) was given by gavage, and samples were collected at 10 minutes, 30 minutes, 1 hour, 2 hours, 4 hours, 6 hours, 8 hours, 10 hours, 24 hours and 48 hours after administration: peripheral venipuncture was performed, and about 1.0 mL whole blood was collected from each animal at every time point, and blood samples were collected. Within 60 minutes after blood collection, 0.2 mL of whole blood was separated into a cryopreservation tube, and deionized water was added at a ratio of 1:1, which was mixed upside down and then frozen. The remaining samples were centrifuged at 2,000 g at 2 to 8° C. for 10 min to obtain plasma samples, and the hemolysis of each sample was recorded, and the influence on detection was evaluated, and then the color of plasma was observed and recorded on the blood collection table (“−” means no hemolysis, “+” means pink supernatant and “++” means red supernatant).
The concentration of compound A in plasma was determined by LC-MS/MS method (Non-GLP). The pharmacokinetic parameters were calculated by WinNonlin (Phoenix™, version 8.1) or other similar software. If applicable plasma drug concentration-time data are available, the following pharmacokinetic parameters are calculated: CL (clearance), Vss (steady-state apparent volume of distribution), T1/2 (elimination half-life), Cmax (peak concentration), Tmax (peak time), AUC (area under the concentration-time curve), MRT (mean residence time). Pharmacokinetic data were described by descriptive statistics, such as mean, standard deviation and sample size.
Comparison of crystalline form and crystalline form V is the same for 3 dogs (male), 10 mg/kg po, fasting, 0.5% CMC-Na stirring for 3 hours, and then administration (suspension), and the data obtained are as shown in Table 7.

[5] = Solid-state crystal transformation between crystalline forms I and V; type: physicochemical; conditions: mixture of forms I and V, oven at 60° C. and room temperature dryer, one week
[6] = Physical and chemical stability (stability boxes, XRPD and HPLC); type: physicochemical; conditions: for Purity -7 days (peak area %) / XRPD: 7 days
Protocol: About 10 mg of crystalline forms I, III and V were placed in the stability boxes at 40° C./75% RH (open) and 60° C. (covered) for seven days, and some samples were taken out for XRPD and HPLC tests at 0 and 7 days, respectively, to investigate their physical and chemical stability.

[7] = Dynamic vapor sorption (DVS) hygroscopicity; type: physicochemical
Protocol: The solid was analyzed by DVS using IGA sorp dynamic vapor sorption instrument. • Temperature: 25° C. • Gas flow: 250 mL/min. • Scan cycle: 2. • Minimum test time: 30 min. • Maximum test time: 2 hours. • Waiting for balance: 98%.

[8] = Competitive slurrying experiment of crystalline forms I and V; type: physicochemical; conditions: acetone, ethanol, room temperature and 60° C., three days
Protocol: Competitive slurrying experiment was carried out: the same amount of crystalline forms I and V were weighed and mixed evenly, then XRPD was tested, and the results were used as T0 of competitive slurrying experiment. The mixture was slurried in acetone, ethanol and water at room temperature and 60° C. Three days later, solid samples were obtained by filtration, and. XRPD was tested.

[9] = system: Dunkin Hartley guinea pigs, ATP-citric acid induced cough; assay: ATP-citric acid cough model; type: in vivo, guinea pig
Protocol: Male Dunkin Hartley guinea pigs (300-400 g) were placed in a whole-body volume scanning box for 3 to 5 minutes, and then subjected to ATP atomization for 2 minutes, with an interval of 3 minutes, followed by citric acid atomization for 5 minutes, and all atomization rates were about 300 μL/min. From citrate acid atomization, cough times and cough latency of animals within 10 min were recorded. During the 10-minute observation period, manual counting of coughs was required, and the number of coughs was judged according to the guinea pig's coughing posture, such as abdominal twitching, mouth opening, head down hooking, etc., as well as the sound of coughing, the number of coughs in the first 10 minutes were recorded, and the cough incubation period of guinea pigs was also recorded.
Animals were divided into vehicle group, dextromethorphan (63 mg/kg) positive group, AF-219 (30 mg/kg) positive group and compound 172 (3, 10, 30 mg/kg) administration group of Embodiment. All compounds were administered orally, except dextromethorphan, which was administered 40 minutes before ATP-citric acid exposure, and the rest compounds were […].

[10] = 63 mg/kg oral, 40 minutes before ATP-citric acid exposure

COC(=O)N1CCO[C@@H](Cc2c(-c3c(F)cc(S(N)(=O)=O)cc3F)nc3cc(Cl)ccn23)C1 [Crystalline form VI, methyl (S)-2-((7-chloro-2-(2,6-difluoro-4-sulfamoylphenyl)imidazo[1,2-a]pyridin-3-yl)methyl)morpholine-4-carboxylate]
crystalline form after being placed under ambient humidity ([1]; 35% RH, a few minutes): transforms into crystalline form I

COC(=O)N1CCO[C@@H](Cc2c(-c3c(F)cc(S(N)(=O)=O)cc3F)nc3cc(Cl)ccn23)C1 [Crystalline form VIII, methyl (S)-2-((7-chloro-2-(2,6-difluoro-4-sulfamoylphenyl)imidazo[1,2-a]pyridin-3-yl)methyl)morpholine-4-carboxylate]
crystalline form after desolvation by vacuum drying ([1]; vacuum drying at 40° C. for 3 hours): transformed into crystalline form I

COC(=O)N1CCO[C@@H](Cc2c(-c3c(F)cc(S(N)(=O)=O)cc3F)nc3cc(Cl)ccn23)C1 [Crystalline form V, methyl (S)-2-((7-chloro-2-(2,6-difluoro-4-sulfamoylphenyl)imidazo[1,2-a]pyridin-3-yl)methyl)morpholine-4-carboxylate]
The experimental results (crystalline form) ([2]; water content 10%, 60° C.): Crystalline form VI | The experimental results (crystalline form) ([2]; water content 10%, RT): Crystalline form I | The experimental results (crystalline form) ([2]; water content 50%, 60° C.): Crystalline form IV | The experimental results (crystalline form) ([2]; water content 50%, RT): Crystalline form IV | The experimental results (crystalline form) ([2]; water content 90%, 60° C.): Crystalline form IV | The experimental results (crystalline form) ([2]; water content 90%, RT): Crystalline form IV | solubility at 0.5 h ([3]; FaSSIF, 37 °C, fassif, thermodynamic from solid, FaSSIF, 0.5 h, read-out: Solubility): 30 µg/mL (≈ 59.9 µM) | solubility at 2 h ([3]; FaSSIF, 37 °C, fassif, thermodynamic from solid, FaSSIF, 2 h, read-out: Solubility): 34 µg/mL (≈ 67.9 µM) | solubility at 24 h ([3]; FaSSIF, 37 °C, thermodynamic from solid, 24 h): 45 µg/mL (≈ 89.8 µM) | XRPD of remaining solid ([3]; FaSSIF, 0.5 h): Unchanged | pH of filtrate ([3]; FaSSIF, 0.5 h): 6.4 | XRPD of remaining solid ([3]; FaSSIF, 2 h): Unchanged | pH of filtrate ([3]; FaSSIF, 2 h): 6.4 | XRPD of remaining solid ([3]; FaSSIF, 24 h): Unchanged | pH of filtrate ([3]; FaSSIF, 24 h): 6.4 | XRPD of remaining solid ([3]; FeSSIF, 0.5 h): Unchanged | pH of filtrate ([3]; FeSSIF, 0.5 h): 5.0 | Solubility ([3]; FeSSIF, 0.5 h): 91 µg/mL (≈ 182 µM) | XRPD of remaining solid ([3]; FeSSIF, 2 h): Unchanged | pH of filtrate ([3]; FeSSIF, 2 h): 5.0 | Solubility ([3]; FeSSIF, 2 h): 93 µg/mL (≈ 186 µM) | XRPD of remaining solid ([3]; FeSSIF, 24 h): Unchanged | pH of filtrate ([3]; FeSSIF, 24 h): 5.1 | Solubility ([3]; FeSSIF, 24 h): 121 µg/mL (≈ 242 µM) | solubility at 0.5 h ([3]; SGF, 37 °C, simulated gastric fluid, thermodynamic from solid, SGF, 0.5 h, read-out: Solubility): 4330 µg/mL (≈ 8650 µM) | solubility at 2 h ([3]; SGF, 37 °C, simulated gastric fluid, thermodynamic from solid, SGF, 2 h, read-out: Solubility (visual observation)): > 5000 µg/mL | pH of filtrate ([3]; SGF, 0.5 h): 1.2 | pH of filtrate ([3]; SGF, 2 h): 1.1 | pH of filtrate ([3]; SGF, 24 h): 1.2 | AUClast [4]: 2637.43 ng·h/mL | Cmax [4]: 170.43 ng/mL | F [4]: 11.7% | MRTlast [4]: 10.39 h | T1/2 [4]: 44.35 h | Tmax [4]: 4.67 h | mutual crystal transformation in solid state [5]: no mutual crystal transformation trend | Initial purity (Peak area %) ([6]; 0 days): 99.29 peak area % | Purity -7 days (peak area %) ([6]; 40° C./75% RH (open)): 99.28 peak area % | XRPD ([6]; 40° C./75% RH (open)): Constant | stability conclusion in words ([6]; 40° C./75% RH and 60° C., seven days): good physical and chemical stability | Purity -7 days (peak area %) ([6]; 60° C. (covered)): 99.30 peak area % | XRPD ([6]; 60° C. (covered)): Constant | XRPD before and after the DVS test [7]: no obvious change in the XRPD | hygroscopicity (DVS) ([7]; 80% RH, 25° C.): 0.7% | relative stability inferred from competitive slurrying and water activity tests [8]: stable at high temperature (60° C.) in water

COC(=O)N1CCO[C@@H](Cc2c(-c3c(F)cc(S(N)(=O)=O)cc3F)nc3cc(Cl)ccn23)C1 [Crystalline form IV, methyl (S)-2-((7-chloro-2-(2,6-difluoro-4-sulfamoylphenyl)imidazo[1,2-a]pyridin-3-yl)methyl)morpholine-4-carboxylate]
crystalline form after dehydration ([1]; heating to dehydration, then ambient humidity): becomes crystalline form I again

COc1ccc2c(c1)[C@]13CCCC[C@@H]1[C@H](C2)N(C)CC3 [Dextromethorphan, dextromethorphan, reference compound]
Cough suppression rate vs Vehicle [9, 10]: 61.60% | Coughing times in 10 min [9, 10]: 8.00 | effect on number of coughs compared with the vehicle group, in words ([9]; guinea pig, in vivo): significantly reduce the number of coughs
